Assay results from publication doi:10.1101/2020.08.04.236984v1 (bioRxiv, 2020).

Key:
[1] = test system: HMG-CoA reductase expression in SKBR-3 cells; details: atorvastatin at a micromolar concentration, ref [57]; cited from earlier work
[2] = test system: SKBR-3 cells; assay: Flow cytometric measurement of penetratin uptake and endo-lysosomal release; format: cell-based; details: atorvastatin 100 nM and 10 μM, 72 h pre-treatment, versus control
[3] = test system: HMG-CoA reductase expression in MDA-MD-231 cells; details: atorvastatin at a micromolar concentration, ref [57]; cited from earlier work
[4] = test system: MDA-MB-231 cells; assay: Membrane fluidity, fluorescence anisotropy of TMA-DPH; format: cell-based; details: atorvastatin 72 h
[5] = test system: SKBR-3 cells; assay: Membrane compactness, generalized polarization of Laurdan; format: cell-based; details: atorvastatin 72 h, 2 μM Laurdan

Compound: CC(C)c1c(C(=O)Nc2ccccc2)c(-c2ccccc2)c(-c2ccc(F)cc2)n1CC[C@@H](O)C[C@@H](O)CC(=O)O [atorvastatin]
- induction of HMG-CoA reductase expression [1]: 4 fold
- amount of penetratin leaving the endo-lysosomal compartment [2]: significantly higher
- change in HMG-CoA reductase enzyme expression [3]: no change
- effect on membrane microviscosity (TMA-DPH anisotropy) [4]: unexpected increase
- effect on membrane compactness (generalized polarization of Laurdan) [5]: decrease
